Target: voltage-gated Na channels
Assay type: cell-based, squid (Loligo opalescens)

MKLTCVLVVLLLLLPYGDLITNNYIRGAARKVTPWRRNLKTRDVCDSLVGGHCIHNGCWCDQEAPHGNCCDTDGCTAAWWCPGTKWD [calTx1.1A]
Ki: ~15 nM
Na-channel blocking activity (block): 55%
reversibility of INa reduction/block: reversibly blocked INa
steady-state voltage-dependence of fast inactivation of residual INa: not significantly affected
time course of residual prepulse-sensitive INa: not significantly different than normal
voltage dependence of block: potency decreasing e-fold in: 300-400 mV

— US7341998B2 (The Board of Trustees of the Leland Stanford Junior …, priority 2005, dated 2008)
